The record followed here is patent US6451796B1, “Fused pyrazine compounds” (Ono Pharmaceutical Co., Ltd., priority 1997, dated 2002).

Common to all, as to type: cell-based
For data set [1], the system named is ICAM-1 expression. Put plainly: Inhibition of ICAM-1 expression in HUVEC (cell ELISA). Conditions: Homo sapiens; HUVEC stimulated with TNFα for 6 hours, ELISA of surface expression. The protocol: (§1) (1) Inhibition of Adhesion Molecules Expression in HUVEC
(§2) Human umbilical vein endothelial cells were cultured using MCDB104 medium (Nissui) containing 5% Fetal bovine serum supplemented antibiotics (100 U/ml penicillin, 100 μg/ml streptomycin (Gibco)), 0.01 mg/ml heparin (Nissui) and 0.005 mg/ml endothelial cells (EC) growth factor (Nissui) in gelatin coated 96-well microtiter plates by resulting in confluent monolayers.
(§3) The compounds were dissolved in dimethyl sulfoxide and prepared final 0.2% concentration in the medium and then added 50 μl into the well. Cytokine stimulation of EC was performed by adding 50 μl of 10 ng/ml TNFα (Genzyme) (for E-selectin. and ICAM-1 expression) or 50 μl of 10 ng/ml TNFα plus 1 ng/ml IL-4 (Genzyme)(for VCAM- expression).
(§4) After stimulation for 6 hours, the wells were washed with PBS(−) once and EC monolayers were fixed by incubating with methanol containing 0.3% hydrogen peroxide for 10 minutes at room temperature. After washing with PBS(−) three times, an ELISA was used to measure the expression of adhesion molecules on EC surface. The ELISA was performed at room temperature with three times washes with PBS(−) between each step. EC were incubated for 30 minutes in turn with 100 μl primary antibody which were anti-ICAM-1 antibody (BBA4), anti-E-selectin antibody (BBA2) or anti-VCAM-1 antibody (BBA6) (mouse IgG1, 1.25 μl/ml; R&D), with 100 μl of secondary antibody which was goat anti-mouse IgG conjugated peroxidase (dilution (1/400); Nordic Immunological laboratories). The enzyme substrate 1 mg/ml o-phenylenediamine/2HCl and 0.1% hydrogen peroxide of 100 μl was added and incubated for 4 minutes at room temperature.
(§5) Reaction was stopped with 50 μl of 8N sulfuric acid and optical density (OD) of each well read at 490 nm in immunoreder. Inhibitory percentage was calculated as follows and IC50 value was estimated by percentage for control.
(§6) Inhibitory percentage (%)=[(C−S)/(C−B)]×100
(§7) C: OD of the sample stimulated by cytokines
(§8) S: OD of the sample stimulated by cytokines in the presence of test compound
(§9) B: OD of the nonstimulated sample
(ELISA stands for enzyme-linked immunosorbent assay.)

The nature of data set [2]: Cytotoxicity test by MTT assay. As to conditions: human; EC treated under conditions identical to adhesion molecule expression measurement; MTT 3 hours. The protocol: Furthermore, MTT [3-(4,5-dimethyl-2-thiazolyl)-2,5-diphenyl-2H-tetrazolium bromide] assay was enforced and the number of living cells was counted in order to estimate the effect of compound not to depend cytotoxicity on the above evaluation system.
(2) Cytotoxicity Test by MTT Assay
EC Were treated under conditions identical to those employed for measurement of adhesion molecules expression. After incubation, the wells were washed with PBS(−) once, added 100 μl of MTT solution (1 mg/ml) and incubated for 3 hours. After incubation supernatants were discarded and 100 μl of methanol added. After stirring, OD of each well read at 570 nm/690 nm in immunoreader. Inhibitory percentage was calculated as follows and IC50 value was estimated by percentage for control.
Inhibitory percentage (%)=[(C−S)/C)]×100
as §7, §8
(Formazan colour is commonly taken as a measure of viable cells.)

The subject of data set [3] is E-selectin expression. As to the kind of experiment: Inhibition of E-selectin expression in HUVEC (cell ELISA). Conditions: Homo sapiens; HUVEC stimulated with TNFα for 6 hours, ELISA of surface expression. The protocol: as §1, §2, §3, §4, §5, §6, §7, §8, §9
Data set [4] has as its system VCAM-1 expression. Put plainly: Inhibition of VCAM-1 expression in HUVEC (cell ELISA). Conditions: Homo sapiens; HUVEC stimulated with TNFα plus IL-4 for 6 hours, ELISA of surface expression. The protocol: as §1, §2, §3, §4, §5, §6, §7, §8, §9

The term IC50 denotes the point on the concentration scale where inhibition reaches its midpoint.

For the compound `FC(F)(F)c1nnc2c(Sc3ccccc3)nc3ccccc3n12` [Compound (12), 4-Phenylthio(5-trifluoromethyl-1,2,4-triazolo)-[4,3-a]quinoxaline], the 50% inhibitory concentration (IC50) is 0.95 µM in data set [1], above 50000 nM in data set [2], 1.04 µM in data set [3] and 0.95 µM in data set [4].

With `OCCCCCSc1nc2ccc(Cl)cc2n2c(C(F)(F)F)nnc12` [Example 3(73), 8-Chloro-4-(5-hydroxypentyl)thio-(5-trifluoromethyl-1,2,4-triazolo)[4,3-a]quinoxaline], the IC50 was 0.4 µM in data set [1], above 25000 nM in data set [2], 0.6 µM in data set [3] and 0.2 µM in data set [4].

For `CC(C)Sc1nc2cccnc2n2c(C(F)(F)F)nnc12` [Example 3(16), 4-Isopropylthio-(5-trifluoromethyl-1,2,4-triazolo)[3,4-c]1,4,5-triazanaphthalene], the half-maximal inhibitory concentration (IC50) was 0.073 µM in data set [1], above 100000 nM in data set [2], 0.103 µM in data set [3] and 0.032 µM in data set [4].
